According to patent US20240173289A1, “USE OF OXYMETHYL-MODIFIED DERIVATIVE OF QUERCETIN IN PREPARATION OF DRUG FOR INHIBITING TUMOR CELL PROLIFERATION” (ZHEJIANG UNIVERSITY, priority 2021, published 2024):
Values after ≈ are worked out from the molar mass of the structure shown.

Tests used:
Format in all cases: cell-based
[1] = system: breast cancer cell line MDA-MB-231; assay: in vitro cell proliferation inhibition (CCK-8); conditions: Homo sapiens, 48 h incubation, read-out: IC50
Excerpt: (§1) Osteosarcoma cell line 143B, HOS, and U2, liver cancer cell line HepG2, breast cancer cell line MDA-MB-231 and T47D, gastric cancer cell line AGS, BGC-823, and SGC-7901, cervical cancer cells Hela, lung cancer cells A549, intestinal cancer cells Caco2, mouse glioma cells BV-2, human prostate cancer cells PC3, human thyroid cancer cell line BCPAP, human normal liver cell line L02, human normal gastric cell line GES, human umbilical vein epithelial cells HUVEC, and human embryonic lung fibroblasts WI-38 were cultured in a DMEM medium containing 10% fetal bovine serum and 1×HEPES in a humid incubator (37° C., 5% CO2). The cells were passaged with trypsin-EDTA in logarithmic phase. Certain density of cells (AGS, T47D, Caco2, BCPAP, GES, HUVEC 1×10^5 cells per well; HepG2, MDA-MB-231, BGC-823, A549, PC3, L02 8×10^4 cells per well; 143B, HOS, U2, SGC-7901, Hela, BV-2, 5×10^4 cells per well; WI-38, 3×10^5 cells per well) were inoculated in a 96-well plate, and cultured for 24 h before treatment. After replacing a fresh medium, 12.5 mg/L to 400 mg/L of quercetin, quercetin 3-methyl ether, and quercetin 3,3′-dimethyl ether dissolved with DMSO were added into the medium (a final volume ratio was 0.1%, and the DMSO was used as a […]). After incubation for 48 h, a complete medium was replaced with a serum-free medium containing 10% CCK-8 reagent. The absorbance at 450 nm and 620 nm was measured separately after the cells were incubated for 1 h. Each experiment was repeated three times independently.
as §1, with “400 mg/L,” for “400 mg/L”, “of” for “of quercetin, quercetin 3-methyl ether, and”, “DMSO was” for “DMSO were”, “into a” for “into the”

[2] = system: gastric cancer cell line AGS; assay: in vitro cell proliferation inhibition (CCK-8); conditions: 48 h incubation, read-out: IC50
Excerpt: as §1
as §1, with “400 mg/L,” for “400 mg/L”, “of” for “of quercetin, quercetin 3-methyl ether, and”, “DMSO was” for “DMSO were”, “into a” for “into the”

[3] = system: human thyroid cancer cell line BCPAP; assay: in vitro cell proliferation inhibition (CCK-8); conditions: Homo sapiens, 48 h incubation, read-out: IC50
Excerpt: as §1
as §1, with “400 mg/L,” for “400 mg/L”, “of” for “of quercetin, quercetin 3-methyl ether, and”, “DMSO was” for “DMSO were”, “into a” for “into the”

[4] = system: gastric cancer cell line BGC-823; assay: in vitro cell proliferation inhibition (CCK-8); conditions: Homo sapiens, BGC-823, BGC823, 48 h incubation, read-out: IC50
Excerpt: as §1
as §1, with “400 mg/L,” for “400 mg/L”, “of” for “of quercetin, quercetin 3-methyl ether, and”, “DMSO was” for “DMSO were”, “into a” for “into the”

[5] = system: Osteosarcoma cell line 143B; assay: in vitro cell proliferation inhibition (CCK-8); conditions: Homo sapiens, 48 h incubation, read-out: IC50
Excerpt: as §1
as §1, with “400 mg/L,” for “400 mg/L”, “of” for “of quercetin, quercetin 3-methyl ether, and”, “DMSO was” for “DMSO were”, “into a” for “into the”

[6] = system: gastric cancer cell line SGC-7901; assay: in vitro cell proliferation inhibition (CCK-8); conditions: Homo sapiens, SGC-7901, SGC7901, 48 h incubation, read-out: IC50
Excerpt: as §1
as §1, with “400 mg/L,” for “400 mg/L”, “of” for “of quercetin, quercetin 3-methyl ether, and”, “DMSO was” for “DMSO were”, “into a” for “into the”

[7] = system: Osteosarcoma cell line HOS; assay: in vitro cell proliferation inhibition (CCK-8); conditions: 48 h incubation, read-out: IC50
Excerpt: as §1
as §1, with “400 mg/L,” for “400 mg/L”, “of” for “of quercetin, quercetin 3-methyl ether, and”, “DMSO was” for “DMSO were”, “into a” for “into the”

[8] = system: cervical cancer cells Hela; assay: in vitro cell proliferation inhibition (CCK-8); conditions: Homo sapiens, 48 h incubation, read-out: IC50
Excerpt: as §1
as §1, with “400 mg/L,” for “400 mg/L”, “of” for “of quercetin, quercetin 3-methyl ether, and”, “DMSO was” for “DMSO were”, “into a” for “into the”

[9] = system: liver cancer cell line HepG2; assay: in vitro cell proliferation inhibition (CCK-8); conditions: Homo sapiens, 48 h incubation, read-out: IC50
Excerpt: as §1
as §1, with “400 mg/L,” for “400 mg/L”, “of” for “of quercetin, quercetin 3-methyl ether, and”, “DMSO was” for “DMSO were”, “into a” for “into the”

[10] = system: intestinal cancer cells Caco2; assay: in vitro cell proliferation inhibition (CCK-8); conditions: Homo sapiens, Caco-2, 48 h incubation, read-out: IC50
Excerpt: as §1
as §1, with “400 mg/L,” for “400 mg/L”, “of” for “of quercetin, quercetin 3-methyl ether, and”, “DMSO was” for “DMSO were”, “into a” for “into the”

mouse glioma cells BV-2 = assay: in vitro cell proliferation inhibition (CCK-8); conditions: Mus musculus, Glioma cell, BV2, 48 h incubation, read-out: IC50
Excerpt: as §1
as §1, with “400 mg/L,” for “400 mg/L”, “of” for “of quercetin, quercetin 3-methyl ether, and”, “DMSO was” for “DMSO were”, “into a” for “into the”

[11] = system: breast cancer cell line T47D; assay: in vitro cell proliferation inhibition (CCK-8); conditions: Homo sapiens, 48 h incubation, read-out: IC50
Excerpt: as §1
as §1, with “400 mg/L,” for “400 mg/L”, “of” for “of quercetin, quercetin 3-methyl ether, and”, “DMSO was” for “DMSO were”, “into a” for “into the”

lung cancer cells A549 = assay: in vitro cell proliferation inhibition (CCK-8); conditions: Homo sapiens, 48 h incubation, read-out: IC50
Excerpt: as §1
as §1, with “400 mg/L,” for “400 mg/L”, “of” for “of quercetin, quercetin 3-methyl ether, and”, “DMSO was” for “DMSO were”, “into a” for “into the”

[12] = system: Osteosarcoma cell line U2; assay: in vitro cell proliferation inhibition (CCK-8); conditions: 48 h incubation, read-out: IC50
Excerpt: as §1
as §1, with “400 mg/L,” for “400 mg/L”, “of” for “of quercetin, quercetin 3-methyl ether, and”, “DMSO was” for “DMSO were”, “into a” for “into the”

[13] = system: human prostate cancer cells PC3; assay: in vitro cell proliferation inhibition (CCK-8); conditions: Homo sapiens, 48 h incubation, read-out: IC50
Excerpt: as §1
as §1, with “400 mg/L,” for “400 mg/L”, “of” for “of quercetin, quercetin 3-methyl ether, and”, “DMSO was” for “DMSO were”, “into a” for “into the”

HepG2 cells = assay: scratch test, metastasis capacity; conditions: 1 mg/L, after 1 d (24 h) of incubation
Protocol: HepG2 cells with a cell density of 5×10^5/mL were plated on a 6-well plate (1 mL per well), added to a DMEM medium containing 10% fetal calf serum, and cultured overnight to form a monolayer of cells. A horizontal scratch was scratched on the monolayer of cells with a pipette tip of 200 μL, washed with PBS 3 times, added into a DMEM medium containing 10% fetal bovine serum, and then added with 1 mg/L of a quercetin 3,3′-dimethyl ether solution, while DMSO was used as a solvent control, and then incubated for 24 h.

## COc1cc(-c2oc3cc(O)cc(O)c3c(=O)c2OC)ccc1O [Quercetin 3,3′-dimethyl ether, quercetin 3,3′-dimethyl ether]
[1]
  IC50: 11.4 µg/mL (≈ 34.5 µM)
[2]
  IC50: 15.8 µg/mL (≈ 47.9 µM)
[3]
  IC50: 12.3 µg/mL (≈ 37.2 µM)
[4]
  IC50: 26.1 µg/mL (≈ 78.9 µM)
[5]
  IC50: 21.6 µg/mL (≈ 65.5 µM)
[6]
  IC50: 28.4 µg/mL (≈ 85.9 µM)
[7]
  IC50: 18.6 µg/mL (≈ 56.3 µM)
[8]
  IC50: 11.1 µg/mL (≈ 33.7 µM)
[9]
  IC50: 5.85 µg/mL (≈ 17.7 µM)
[10]
  IC50: 21.4 µg/mL (≈ 64.8 µM)
Mouse glioma cells BV-2
  IC50: 21.1 µg/mL (≈ 63.9 µM)
[11]
  IC50: 13.3 µg/mL (≈ 40.4 µM)
Lung cancer cells A549
  IC50: 17.4 µg/mL (≈ 52.6 µM)
[12]
  IC50: 49.5 µg/mL (≈ 150 µM)
[13]
  IC50: 31.3 µg/mL (≈ 94.7 µM)
HepG2 cells
  intercellular space (scratch) versus control group: significantly higher
